Measurements taken from patent US20110288115A1, “TREATMENT OF VAGALLY-MEDIATED SPECTRUM DISORDERS” (AVMEDIS LLC, priority 2010, published 2011).

Key:
[1] = system: patient suffering from alcohol dependence; experiment: Treatment of alcohol abuse in a patient with alcohol dependence; type: in vivo; conditions: person; 5 mg per day via nasal spray; within one month; patient report
Experimental: The patient is a person suffering from alcohol dependence and complaining of symptoms including abdominal pain, confusion, nausea and vomiting, neglecting to eat, and shaking in the morning. The patient is prescribed granisetron 5 mg per day taken via nasal spray.

[2] = system: patient with panic disorder; experiment: Treatment of panic disorder in a patient with a 5-HT3 receptor antagonist; type: in vivo; conditions: patient previously treated largely unsuccessfully with SSRIs, MAOIs, tricyclic antidepressants, benzodiazepines; 8 mg/day to 30 mg/day for 5 to 60 days
Experimental: A patient presents with symptoms including rapid heartbeat, perspiration, dizziness, dyspnea, trembling, uncontrollable fear, and hyperventilation, indicative of panic disorder. The patient has previously been treated, largely unsuccessfully, with selective serotonin reuptake inhibitors (SSRIs), monoamine oxidase inhibitors (MAOIs), tricyclic antidepressants, and benzodiazepines. The patient is treated for 5 to 60 days sequentially with ondansetron administered at a dose of 8 mg/day to 30 mg/day.

SMILES | control over drinking [1] | improvement of symptoms (abdominal pain, confusion, nausea and vomiting, neglecting to eat, shaking in the morning) [1] | amelioration of panic disorder (severity and frequency of panic attacks and their symptoms) [2]
CN1C2CCCC1CC(NC(=O)c1nn(C)c3ccccc13)C2 (stereo not drawn) [granisetron] | able to exert control over their drinking | all of the above symptoms have improved considerably | 
Cc1nccn1CC1CCc2c(c3ccccc3n2C)C1=O (stereo not drawn) [ondansetron, 1,2,3,9-tetrahydro-9-methyl-3-[(2-methyl-1H-imidazol-1-yl]methyl]-4H-carbazol-4-one] |  |  | long-lasting amelioration of panic disorder
